Source: patent US6949533B2, “6,7-Oxygenated steroids and uses related thereto” (Inflazyme Pharmaceuticals Ltd., priority 1996, dated 2005)

What was measured:
[1] = system: Ascaris suum sensitized sheep; experiment: allergic sheep model of asthma; type: in vivo
Description: The model is conscious, where the animals are breathing spontaneously, allowing measurement of airways bronchoconstriction and acute airway hyperresponsiveness.
Sheep which were naturally sensitized to Ascaris suum (30-40 Kg) were intubated with an endotracheal tube and a balloon catheter, positioned in the lower esophagus. Pleural pressure was estimated with the esophageal catheter, while later pressure was measured with a side-hole catheter advanced through and positioned distal to the tip of the endotracheal tube. Transpulmonary pressure differences between the trachea and pleural pressures were measured with a differential pressure transducer catheter system.
The proximal end of the endotracheal tube was connected to a Fleisch pneumotachograph in order to measure flow changes. Pulmonary resistance (RL) was calculated from pressure measurements of transpulmonary pressure, respiratory volume (from digital integration of the flow signal) and flow by the mid-flow technique. SRL was calculated as RL Vtg (Vtg=thoracic gas volume).
Aerosols generated using a disposable nebulizer, were directed into a T-piece connected to a Harvard respirator and the tracheal tube in series. The aerosol delivery was controlled using a dosimeter system, consisting of a solenoid valve and compressed air (20 psi) activated at the start of each inspiratory cycle. Aerosols were delivered in tidal volumes of 500 ml at […].
Selected compounds from the invention were dissolved as a stock solution in DMSO and diluted in saline. Animals received either, 400 μg/Kg of compound 30 min prior to challenge and 4 hours after challenge, or 400 μg/Kg of compound for 4 days with the last dose 2 hours before challenge. Ascaris suum extract was diluted in phosphate buffered saline to a concentration of 82000 protein nitrogen units/ml and delivered by aerosol over 20 min. Carbachol was dissolved in PBS to concentrations of 0.25, 0.5 1.0, 2.0, 4.0% wt/vol. Each animal served as its own control throughout the study.
Specific lung resistance (SRL) was measured every 60 min for 8 hours after antigen challenge. Airways hyperresponsiveness to carbachol was measured 24 hours after the initial challenge.

[2] = system: sensitized guinea pigs; experiment: allergen-induced changes in lung resistance and compliance in vivo; design: species or system guinea pig
Description: Female Cam Hartley guinea pigs (350-400 g) are sensitized to ovalbumin by exposure of the guinea pigs to a nebulized solution of 1% ovalbumin in saline for 15 minutes. After 10-12 days, the animals are found to be acutely sensitized to the allergen (ovalbumin). Animals are treated by oral gavage, under light halothane anesthesia, with 300 μl polyethyleneglycol-200 (PEG) or 5 mg/Kg of test compound in 300 μl of PEG. Animals are treated once daily for 4 days with the final dose administered 2 hours prior to allergen challenge. Alternatively, compounds were delivered by inhalation, using a Hudson nebulizer driven by 6 psi oxygen, providing a single dose of 50 μg/Kg 20 min prior to challenge.
An animal is anaesthetized using ketamine ([…]; i.p.) and xylazine (10 mg/Kg; i.p.) and 1% halothane during the surgical procedure. A tracheostomy is performed and a water-filled esophageal cannula is inserted prior to positioning the animal in a body plethysmograph. The tracheal cannula is attached to a fixed tracheal cannula in the plethysmograph. Cardiac function is monitored using electrocardiography. The animal is paralyzed using pancuronium bromide (0.8 mg/Kg; i.m.) and ventilated with 3 ml tidal breaths using a Harvard small animal ventilator, at a frequency of 60 breaths per minute. Pulmonary resistance and dynamic lung compliance data are obtained from volume, flow and transpulmonary pressure signals using multipoint analysis.
Pulmonary function is continually monitored throughout the experiment and measurements of lung resistance and lung compliance are made at various time-points (e.g., 0, 1, 2, 3, 4, 5, 10, 20 and 30 min) following antigen challenge. Data is collected on a computer-linked physiological measurement system using DIREC Physiological recording software and analyzed using ANADAT software designed for lung mechanics measurements. This software was obtained from RHT-InfoDat Inc., Montreal, Quebec, Canada.
Once baseline resistance and compliance measurements are obtained, the animal is challenged with 6 breaths of saline. After 10 minutes, during which time no alterations in lung function should occur, the animal is challenged with 6 breaths of 2 or 3% ovalbumin in saline (as the antigen stimulus). Saline and antigen are delivered in each breath using a Hudson nebulizer.

[3] = system: NF-κB; experiment: NF-κB gel shift binding assay in TPA-stimulated RBL-2H3 cells; type: cell-based; details: Rattus norvegicus, compound 1 μM, 2 hours preincubation, read-out: Percent Inhibition of Response to TPA (0.1 μM)
[4] = 400 μg/kg/day for 4 days, inhalation, Baseline
[5] = 5 mg/kg/day for 4 days p.o., 1 min after challenge
[6] = 5 mg/kg/day for 4 days p.o., 3 min after challenge
[7] = 5 mg/kg/day for 4 days p.o., 4 min after challenge
[8] = 5 mg/kg/day for 4 days p.o., 5 min after challenge
[9] = 5 mg/kg/day for 4 days p.o., 10 min after challenge
[10] = 5 mg/kg/day for 4 days p.o., 20 min after challenge
[11] = 5 mg/kg/day for 4 days p.o., 30 min after challenge
[12] = 5 mg/kg/day for 4 days p.o., Baseline
[13] = 5 mg/kg/day for 4 days p.o., OA/10 s

With `C/C=C1/CCC2C3C(CC[C@]12C)[C@@]1(C)CC[C@@H](O)CC1[C@@H](O)[C@@H]3O` (stereo partly drawn) [Compound 330, 3α,6α,7β-trihydroxy-17(20)-pregnene] the “PC400 Hyperresponsiveness to carbachol” value ([1]; 400 μg/kg inhalation 30 min prior to and 4 hours after challenge, Baseline) was 26.01 ± 3.06 Breath Units, the “PC400 Hyperresponsiveness to carbachol” value ([1]; 400 μg/kg inhalation 30 min prior to and 4 hours after challenge, Post-Challenge (24 hours)) was 22.79 ± 6.11 Breath Units and the “Specific Lung Resistance” value ([1]; 400 μg/kg inhalation 30 min prior to and 4 hrs after challenge, 1 hr) was 117 ± 11 % Baseline. The “Specific Lung Resistance” value ([1]; 400 μg/kg inhalation 30 min prior to and 4 hrs after challenge, 2 hr) was 49 ± 11 % Baseline, the “Specific Lung Resistance” value ([1]; 400 μg/kg inhalation 30 min prior to and 4 hrs after challenge, 3 hr) was 32 ± 6 % Baseline and the “Specific Lung Resistance” value ([1]; 400 μg/kg inhalation 30 min prior to and 4 hrs after challenge, 4 hr) was 20 ± 6 % Baseline. The “Specific Lung Resistance” value ([1]; 400 μg/kg inhalation 30 min prior to and 4 hrs after challenge, 5 hr) was 14 ± 4 % Baseline, the “Specific Lung Resistance” value ([1]; 400 μg/kg inhalation 30 min prior to and 4 hrs after challenge, 6 hr) was 14 ± 5 % Baseline and the “Specific Lung Resistance” value ([1]; 400 μg/kg inhalation 30 min prior to and 4 hrs after challenge, 6.5 hr) was 18 ± 6 % Baseline. For the same compound, the “Specific Lung Resistance” value ([1]; 400 μg/kg inhalation 30 min prior to and 4 hrs after challenge, 7 hr) was 10 ± 2 % Baseline, the “Specific Lung Resistance” value ([1]; 400 μg/kg inhalation 30 min prior to and 4 hrs after challenge, 7.5 hr) was 17 ± 8 % Baseline and the “Specific Lung Resistance” value ([1]; 400 μg/kg inhalation 30 min prior to and 4 hrs after challenge, 8 hr) was 5 ± 3 % Baseline. The “Specific Lung Resistance” value ([1]; 400 μg/kg inhalation 30 min prior to and 4 hrs after challenge, Baseline) was 2 ± 5 % Baseline, the “Specific Lung Resistance” value ([1]; 400 μg/kg inhalation 30 min prior to and 4 hrs after challenge, Challenge (0)) was 268 ± 35 % Baseline and the “Specific Lung Resistance” value ([1]; 400 μg/kg inhalation 30 min prior to and 4 hrs after challenge, −0.5 hr) was 0 ± 4 % Baseline. The “Specific Lung Resistance” value ([1]; 400 μg/kg/day for 4 days, inhalation, 1 hr) was 34.00 ± 10.75 % Baseline, the “Specific Lung Resistance” value ([1]; 400 μg/kg/day for 4 days, inhalation, 2 hr) was 11.50 ± 6.18 % Baseline and the “Specific Lung Resistance” value ([1]; 400 μg/kg/day for 4 days, inhalation, 3 hr) was −15.00 ± 37.67 % Baseline. For the same compound, the “Specific Lung Resistance” value ([1]; 400 μg/kg/day for 4 days, inhalation, 4 hr) was 4.00 ± 1.78 % Baseline, the “Specific Lung Resistance” value ([1]; 400 μg/kg/day for 4 days, inhalation, 5 hr) was −4.50 ± 4.17 % Baseline and the “Specific Lung Resistance” value ([1]; 400 μg/kg/day for 4 days, inhalation, 6 hr) was 7.75 ± 9.75 % Baseline. The “Specific Lung Resistance” value ([1]; 400 μg/kg/day for 4 days, inhalation, 6.5 hr) was 5.50 ± 4.87 % Baseline, the “Specific Lung Resistance” value ([1]; 400 μg/kg/day for 4 days, inhalation, 7 hr) was 10.75 ± 4.91 % Baseline and the “Specific Lung Resistance” value ([1]; 400 μg/kg/day for 4 days, inhalation, 7.5 hr) was 4.00 ± 2.35 % Baseline. The “Specific Lung Resistance” value ([1]; 400 μg/kg/day for 4 days, inhalation, 8 hr) was 3.25 ± 4.73 % Baseline, the “PC400 Hyperresponsiveness to carbachol” value [1, 4] was 21.26 ± 2.75 Breath Units and the “Specific Lung Resistance” value [1, 4] was 5.25 ± 4.50 % Baseline. The “Specific Lung Resistance” value ([1]; 400 μg/kg/day for 4 days, inhalation, Challenge (0)) was 126.00 ± 19.11 % Baseline, the “PC400 Hyperresponsiveness to carbachol” value ([1]; 400 μg/kg/day for 4 days, inhalation, Post-Challenge (24 hours)) was 21.21 ± 3.10 Breath Units and the “Specific Lung Resistance” value ([1]; 400 μg/kg/day for 4 days, inhalation, −0.5 hr) was −3.75 ± 4.29 % Baseline. For the same compound, the “Lung Resistance” value ([2]; 50 μg/kg inhalation, 3 min after challenge) was 0.420 ± 0.051 cm H2O/ml/sec, the “Lung Compliance” value ([2]; 50 μg/kg inhalation, 4 min after challenge) was 0.145 ± 0.046 ml/cm H2O and the “Lung Compliance” value [2, 5] was 0.182 ± 0.093 ml/cm H2O. For the same compound, the “Lung Resistance” value [2, 5] was 0.560 ± 0.101 cm H2O/ml/sec, the “Lung Resistance” value ([2]; 5 mg/kg/day for 4 days p.o., 2 min after challenge) was 0.845 ± 0.201 cm H2O/ml/sec and the “Lung Compliance” value [2, 6] was 0.133 ± 0.095 ml/cm H2O. The “Lung Resistance” value [2, 6] was 0.887 ± 0.160 cm H2O/ml/sec, the “Lung Compliance” value [2, 7] was 0.124 ± 0.088 ml/cm H2O and the “Lung Resistance” value [2, 7] was 0.778 ± 0.119 cm H2O/ml/sec. For the same compound, the “Lung Compliance” value [2, 8] was 0.125 ± 0.087 ml/cm H2O, the “Lung Resistance” value [2, 8] was 0.791 ± 0.139 cm H2O/ml/sec and the “Lung Compliance” value [2, 9] was 0.150 ± 0.082 ml/cm H2O. The “Lung Resistance” value [2, 9] was 0.661 ± 0.141 cm H2O/ml/sec, the “Lung Compliance” value [2, 10] was 0.184 ± 0.061 ml/cm H2O and the “Lung Resistance” value [2, 10] was 0.366 ± 0.046 cm H2O/ml/sec. The “Lung Compliance” value [2, 11] was 0.196 ± 0.061 ml/cm H2O, the “Lung Resistance” value [2, 11] was 0.340 ± 0.037 cm H2O/ml/sec and the “Lung Compliance” value [2, 12] was 0.318 ± 0.042 ml/cm H2O. For the same compound, the “Lung Resistance” value [2, 12] was 0.275 ± 0.036 cm H2O/ml/sec, the “Lung Compliance” value [2, 13] was 0.435 ± 0.041 ml/cm H2O and the “Lung Resistance” value [2, 13] was 0.260 ± 0.036 cm H2O/ml/sec. The inhibition at 1 µM [3] was 66%.
